The text below walks through data of patent US10004732B2 (Novartis AG, priority 2014, dated 2018).

Like-named read-outs stand apart in the source and are kept apart here.

Data set [1] deals with T1, PI 3-kinase alpha (Homo sapiens, UniProt P42336). Put plainly: Kinase Glo Luminescent Kinase Assay (Kglo), assay A. Type of data set: biochemical. As to conditions: read-out: Assay A PI3Kα IC50.
Data set [2] has as its target T2, PI 3-kinase beta (Homo sapiens, UniProt P42338). The experiment in a line: Kinase Glo Luminescent Kinase Assay (Kglo), assay B. The format is biochemical. The note with it: read-out: Assay B PI3Kβ IC50. Background: Kinase-Glo reads ATP consumption through a luciferase reaction.
Target sequence in this assay (P42338 whole entry): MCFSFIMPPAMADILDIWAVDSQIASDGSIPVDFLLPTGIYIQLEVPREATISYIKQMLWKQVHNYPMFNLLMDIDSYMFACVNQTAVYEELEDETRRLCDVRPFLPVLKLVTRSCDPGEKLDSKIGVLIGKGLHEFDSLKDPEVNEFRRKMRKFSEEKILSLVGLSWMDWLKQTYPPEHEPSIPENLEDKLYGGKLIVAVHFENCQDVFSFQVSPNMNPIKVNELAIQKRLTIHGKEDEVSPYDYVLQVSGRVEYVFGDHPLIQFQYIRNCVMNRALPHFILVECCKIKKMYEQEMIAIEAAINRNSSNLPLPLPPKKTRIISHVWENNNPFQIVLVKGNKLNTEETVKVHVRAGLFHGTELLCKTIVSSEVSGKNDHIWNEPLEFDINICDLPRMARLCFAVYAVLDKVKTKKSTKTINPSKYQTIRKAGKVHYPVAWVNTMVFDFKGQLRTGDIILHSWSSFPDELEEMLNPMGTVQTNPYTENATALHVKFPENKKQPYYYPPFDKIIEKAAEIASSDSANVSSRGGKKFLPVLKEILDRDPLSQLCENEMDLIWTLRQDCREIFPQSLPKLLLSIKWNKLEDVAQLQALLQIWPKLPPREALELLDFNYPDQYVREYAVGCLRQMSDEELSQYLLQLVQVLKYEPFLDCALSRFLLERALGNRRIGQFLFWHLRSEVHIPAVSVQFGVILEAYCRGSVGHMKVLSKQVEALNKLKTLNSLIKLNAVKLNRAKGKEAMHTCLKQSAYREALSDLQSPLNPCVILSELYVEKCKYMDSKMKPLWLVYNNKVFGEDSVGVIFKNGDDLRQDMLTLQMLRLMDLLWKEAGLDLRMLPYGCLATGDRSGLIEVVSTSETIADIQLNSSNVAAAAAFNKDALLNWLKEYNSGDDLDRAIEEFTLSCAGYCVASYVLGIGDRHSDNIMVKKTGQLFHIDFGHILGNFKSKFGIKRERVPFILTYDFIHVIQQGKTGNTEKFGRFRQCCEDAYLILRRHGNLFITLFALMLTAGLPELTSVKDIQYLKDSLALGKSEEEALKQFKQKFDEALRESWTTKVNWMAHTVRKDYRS
Target sequence in this assay (P27986 461-568 partner): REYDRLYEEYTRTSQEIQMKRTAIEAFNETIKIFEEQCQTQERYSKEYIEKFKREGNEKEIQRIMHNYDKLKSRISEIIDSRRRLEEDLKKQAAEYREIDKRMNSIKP
The target in a further data set is Vps34 (Homo sapiens, UniProt Q8NEB9). Put plainly: Kinase Glo Luminescent Kinase Assay (Kglo), assay C. Type of data set: biochemical.
The target of the next data set is PI 4-kinase beta (Homo sapiens, UniProt Q9UBF8). Put plainly: Kinase Glo Luminescent Kinase Assay (Kglo), assay D. The format is biochemical.
Data set [3] deals with T3, PI 3-kinase gamma (Homo sapiens, UniProt P48736). Put plainly: TR-FRET Adapta assay, assay E. Type of data set: biochemical. The note with it: read-out: Assay E PI3Kγ IC50.
Method: TR-FRET Adapta Assay for PI 3-Kinase Gamma (E), PI 3-Kinase Delta (F)
The TR-FRET Adapta™ Universal Kinase Assay Kit was purchased from Invitrogen Corporation (Carlsbad/CA, USA) (Cat. No. PV5099).
PIK3CD substrate phosphatidylinositol (PI) was obtained from Invitrogen (vesicules consisting of 2 mM phosphatidylinositol (PI) in 50 mM HEPES pH7.5; Cat. No. PV5371). PIK3CG substrate phosphatidylinositol-4,5-bisphosphate (PIP(4,5)2 was obtained from Invitrogen (PIP2:PS large unilamellar vesicules consisting of 1 mM PIP2: 19 mM PS in 50 mM HEPES pH7.5, 3 mM MgCl2, 1 mM EGTA; Cat. No. PV5100).
Time-Resolved Fluorescence Resonance Energy Transfer (TR-FRET) is a technology based on energy transfer between two adjacent dyes, from an excited electron in one dye (the donor) to an electron of an adjacent dye (the acceptor) through resonance, then released as a photon. This energy transfer is detected by an increase in the fluorescence emission of the acceptor, and a decrease in the fluorescence emission of the donor. TR-FRET assays for protein kinases use a long-lifetime lanthanide Terbium or Europium chelates as the donor species which overcome interference from compound autofluorescence or light scatter from precipitated compounds, by introducing a delay after excitation by a flashlamp excitation source. Results are often expressed as a ratio of the intensities of the acceptor and donor fluorophores. The ratiometric nature of such a value corrects for differences in assay volumes between wells, as well as corrects for quenching effects due to colored compounds. The Adapta™ assay can be divided into two phases: a kinase reaction phase and an ADP detection phase. In the kinase reaction phase, all kinase reaction components are added to the well and the reaction is allowed to incubate for a set period of time specific for each kinase. […] In the presence of an inhibitor, the amount of ADP formed by the kinase reaction is reduced, and the resulting intact antibody-tracer interaction maintains a high TR-FRET signal.
50 nL of compound dilutions were dispensed onto white 384-well small volume polystyrene plate. Then 5 μL of either PI 3-kinase gamma or PI 3-kinase delta and lipid substrate (PI or PIP2:PS) followed by 5 μL of ATP (final assay volume 10 μL) are incubated at RT. The standard reaction buffer for the Adapta™ TR-FRET assay contained 10 mM Tris-HCl pH 7.5, 3 mM MgCl2, 50 mM NaCl, 1 mM DTT, 0.05% CHAPS 3-[(3-cholamidopropyl)dimethylammonio]-1-propanesulfonate).
Data are analyzed using Excel fit software or Graphpad Prism. IC50 values were derived by fitting a sigmoidal dose-response curve to a plot of assay readout over inhibitor concentration. All fits were performed with the program XLfit4 (ID Business Solutions, Guildford, UK). […] All fits were performed with the program XLfit4 (ID Business Solutions, Guildford, UK).
For data set [4], the target named is T1, PI 3-kinase alpha. The experiment in a line: Cellular assay H2, p-AKT (Ser473) in Rat-1 cells, HTRF format. Type of data set: cell-based. The note with it: asterisked data: version H2 (HTRF format), read-out: Assay H PI3Kα IC50. A general note: In TR-FRET formats the signal depends on donor and acceptor labels being close together.
Method: (§1) Cellular Assays for PI 3-Kinase Alpha (H2), Beta (12) and Delta (J2): HTRF (Homogeneous Time Resolved Fluorescence) Format
(§2) All cell lines were cultivated in complete growth medium (DMEM high glucose GlutaMAX™ Pyruvate, 10% (v/v) fetal bovine serum, 0.1 mM MEM NEAA, 25 mM HEPES, puromycin 10 μg/mL, 100 U/ml Penicillin, 100 μg/ml Streptomycin) to 90% confluency at 37° C./5% CO2/90% humidity in a humidified CO2 incubator and were split twice a week.
(§3) Semi-automated preparation of cell lysates: For low (inhibited) controls, 0.9 mM NVP-BGT226-AF-1 in 90% (v/v) DMSO was added to the compound master plate. For compound testing, the cells were seeded at a density of 4000 (Rat-1_PI3Kdelta), 8000 (Rat-1_PI3Kalpha), or 6500 (Rat-1_PI3Kbeta) cells in 30 μl complete growth medium into cell culture treated 384-well plates and were grown at 37° C./5% CO2/90% humidity for 24 h. 10 μl of the compound predilutions were transferred to the cells.
Data set [5] concerns the target T2, PI 3-kinase beta. Put plainly: Cellular assay I2, p-AKT (Ser473) in Rat-1 cells, HTRF format. Type of data set: cell-based. The note with it: asterisked data: version I2 (HTRF format), read-out: Assay I PI3Kβ IC50.
Target sequence in this assay (P42338 whole entry): as the sequence (P42338 whole entry) above
Target sequence in this assay (Q63787 whole entry partner): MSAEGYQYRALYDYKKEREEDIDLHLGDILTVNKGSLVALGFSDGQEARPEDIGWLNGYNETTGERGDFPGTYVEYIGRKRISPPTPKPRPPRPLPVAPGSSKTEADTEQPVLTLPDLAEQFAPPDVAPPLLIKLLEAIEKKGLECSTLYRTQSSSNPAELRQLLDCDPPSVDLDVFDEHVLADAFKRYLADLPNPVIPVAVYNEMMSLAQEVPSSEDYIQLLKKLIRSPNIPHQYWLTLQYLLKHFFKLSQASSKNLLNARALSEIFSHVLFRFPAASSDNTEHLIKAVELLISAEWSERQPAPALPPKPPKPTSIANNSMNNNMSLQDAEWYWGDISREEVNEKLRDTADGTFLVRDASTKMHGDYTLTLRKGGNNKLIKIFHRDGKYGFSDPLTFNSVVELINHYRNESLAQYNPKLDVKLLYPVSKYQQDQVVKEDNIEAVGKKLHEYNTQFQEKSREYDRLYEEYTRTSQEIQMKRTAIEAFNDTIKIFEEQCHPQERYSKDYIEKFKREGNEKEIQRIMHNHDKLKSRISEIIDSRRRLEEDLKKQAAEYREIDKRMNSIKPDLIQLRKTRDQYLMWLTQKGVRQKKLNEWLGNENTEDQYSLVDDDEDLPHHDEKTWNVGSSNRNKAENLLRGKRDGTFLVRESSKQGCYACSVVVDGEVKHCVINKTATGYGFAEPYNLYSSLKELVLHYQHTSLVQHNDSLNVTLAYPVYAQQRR
Method: as §1, §2, §3
For data set [6], the target named is T4, PI 3-kinase delta (Homo sapiens, UniProt O00329). The experiment in a line: Cellular assay J2, p-AKT (Ser473) in Rat-1 cells, HTRF format. Type of data set: cell-based. As to conditions: asterisked data: version J2 (HTRF format), read-out: Assay J PI3Kδ IC50.
Target sequence in this assay (O00329 whole entry): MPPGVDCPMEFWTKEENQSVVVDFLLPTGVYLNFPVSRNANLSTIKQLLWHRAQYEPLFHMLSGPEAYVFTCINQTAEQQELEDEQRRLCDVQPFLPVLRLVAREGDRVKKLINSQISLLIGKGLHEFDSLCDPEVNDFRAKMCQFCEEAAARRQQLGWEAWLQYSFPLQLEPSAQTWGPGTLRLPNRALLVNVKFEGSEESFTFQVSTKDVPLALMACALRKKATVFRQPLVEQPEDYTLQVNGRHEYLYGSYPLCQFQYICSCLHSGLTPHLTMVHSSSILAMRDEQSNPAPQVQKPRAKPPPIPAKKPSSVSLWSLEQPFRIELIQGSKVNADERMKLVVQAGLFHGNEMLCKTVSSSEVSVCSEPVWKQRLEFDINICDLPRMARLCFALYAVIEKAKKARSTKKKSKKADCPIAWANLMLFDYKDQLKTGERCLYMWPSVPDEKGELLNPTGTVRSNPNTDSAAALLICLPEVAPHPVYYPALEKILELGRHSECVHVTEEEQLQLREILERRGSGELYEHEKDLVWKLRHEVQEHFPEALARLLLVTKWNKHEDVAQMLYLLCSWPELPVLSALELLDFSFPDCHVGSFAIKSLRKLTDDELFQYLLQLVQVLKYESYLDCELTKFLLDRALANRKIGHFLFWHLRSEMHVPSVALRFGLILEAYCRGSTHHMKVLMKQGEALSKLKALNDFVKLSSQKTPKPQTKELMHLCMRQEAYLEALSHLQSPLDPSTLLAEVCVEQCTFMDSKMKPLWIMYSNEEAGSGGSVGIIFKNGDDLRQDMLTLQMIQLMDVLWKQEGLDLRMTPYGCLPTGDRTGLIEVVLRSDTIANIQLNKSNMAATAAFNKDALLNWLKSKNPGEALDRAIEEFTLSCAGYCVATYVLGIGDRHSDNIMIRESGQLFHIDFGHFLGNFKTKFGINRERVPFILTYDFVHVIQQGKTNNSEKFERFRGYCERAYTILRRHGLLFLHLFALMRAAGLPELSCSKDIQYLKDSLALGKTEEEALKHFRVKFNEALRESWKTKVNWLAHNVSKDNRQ
Target sequence in this assay (Q63787 whole entry partner): as the sequence (Q63787 whole entry partner) above
Method: as §1, §2, §3
The target of data set [7] is T3, PI 3-kinase gamma. The experiment in a line: Cellular U937 AKT assay K2 (HTRF). The note with it: U937 cells, K2 format; read-out: Assay K2 PI3Kγ IC50. Type of data set: cell-based.
Method: In assays K1 and K2, the compounds were tested for their ability to inhibit the production of phosphorylated AKT (Protein Kinase B) generated in a PI 3-kinase gamma isoform-dependent process in a U937 human cell line.
Cellular U937 AKT Assay for PI 3-Kinase Gamma (K2)
U937 cells are split every 3-4 days: 5×10^6 cells/flask (175 cm^2) in 40 ml.
Semi-automated preparation of cell lysates: Cells were resuspended in HBSS, seeded (200′000 cells/well/60 μl) into a 384-well plate and incubated in a humidified 37° C., 5% CO2 incubator for 1.5 hours. The compounds were diluted with HBSS and 40 μl were added to the starved cells (except for wells 24 I-P). […] The cells were then incubated for 30 minutes at 37° C. and 5% CO2. Stimulation occurred during 3 minutes by addition of 20 μl MIP1α (final 10 ng/ml, diluted in HBSS) in the incubator. Wells 24 A-H were only stimulated with HBSS.
The stimulation was then stopped by putting the cell plates on ice (filled with cold water). The cells were then centrifuged at 1200 rpm and 4° C. for 3 minutes.
80 μl of supernatant was removed. The cells were again centrifuged at 1200 rpm and 4° C. for 3 minutes. The supernatant was then removed by turning plates upside down and 30 μl of lysis buffer were added. The plate was incubated at room temperature for 30 minutes under shaking. 16 μl were then transferred to a ProxiPlate Plus 384-well. 4 μl of the master mix (each conjugate diluted 1:20 with detection reagent) were added to each well and the plate was kept in the dark at room temperature for 4 hours.
For data set [8], the system named is IL-8-induced neutrophil shape change in human whole blood. The experiment in a line: Whole blood neutrophil shape change assay (L). The format is cell-based. The note with it: Homo sapiens, Neutrophil, IL-8, human whole blood, read-out: Assay L WBSC IC50.
Data set [9] addresses T4, PI 3-kinase delta. Put plainly: TR-FRET Adapta assay, assay F.
Target sequence in this assay (O00329 whole entry): as the sequence (O00329 whole entry) above
Target sequence in this assay (P27986 461-568 partner): as the sequence (P27986 461-568 partner) above
Data set [10] can be described thus: Microsomal clearance assay (M). The note with it: intrinsic clearance in rat liver microsomes. A general note: Liver microsomes are a subcellular fraction often used to study metabolism.
Method: (§4) The experiments were performed in 96-well glass plates at 37° C. on an automated Tecan EVO platform. Test compounds at a concentration of 10 mM in pure DMSO were diluted 1:1000 in water to 10 μM. […] Reactions were initiated by the addition of 150 μL of a cofactor solution containing 2 mM NADPH.
A further data set has as its target mTOR (Homo sapiens, UniProt P42345). The experiment in a line: Lanthascreen kinase binding assay, assay G. The note with it: Assay G mTOR IC50 (μM).
Data set [11] has as its target T1, PI 3-kinase alpha. Put plainly: Cellular assay H1, p-Akt (S473) in Rat-1 cells, Surefire format. The format is cell-based.
From the text: Cellular Assays for PI 3-Kinase Alpha (H1), Beta (I1) and Delta (J1): Surefire Format
AlphaScreen (Amplified Luminescent Proximity Homogeneous Assay, ALPHA, Perkin Elmer) is a non-radioactive bead-based proximity assay technology to study biomolecular interactions in a homogenous microtiter plate format. The brand name SureFire denotes AlphaScreen assays that are adapted to quantify the phosphorylation of endogenous cellular proteins in cell lysates, by using matched antibody pairs, which consist of an anti-phospho-kinase and an anti-kinase antibody. The assay allows characterization of kinase signaling in cells as well as measurement of kinase inhibitor effects.
Using Rat-1 cells stably expressing myr-HA-tagged versions of the human PI3Kdelta, PI3Kalpha, or PI3Kbeta p110 catalytic subunit isoforms, the assay was developed as a two-plate protocol in a 384-well format.
For compound testing, the cells were seeded at a density of 4000 (Rat-1_PI3Kdelta), 7500 (Rat-1_PI3Kalpha), or 6200 (Rat-1_PI3Kbeta) cells in 20 μl complete growth medium into cell culture treated 384-well plates and were grown at 37° C./5% CO2/90% humidity for 24 h. Shortly before compound transfer, the complete medium was removed, 30 μl assay buffer (DMEM high glucose, 1×MEM NEAA, 10 mM HEPES, 2 mM L-glutamine, 0.1% (w/v) BSA) was added and 10 μl of the compound predilutions were transferred to the cells.
Data set [12] deals with T2, PI 3-kinase beta. The experiment in a line: Cellular assay I1, p-Akt (S473) in Rat-1 cells, Surefire format. The format is cell-based.
Target sequence in this assay (P42338 whole entry): as the sequence (P42338 whole entry) above
Target sequence in this assay (Q63787 whole entry partner): as the sequence (Q63787 whole entry partner) above
In data set [13] the target is T4, PI 3-kinase delta. The experiment in a line: Cellular assay J1, p-Akt (S473) in Rat-1 cells, Surefire format. Type of data set: cell-based.
Target sequence in this assay (O00329 whole entry): as the sequence (O00329 whole entry) above
Target sequence in this assay (Q63787 whole entry partner): as the sequence (Q63787 whole entry partner) above
In data set [14] the target is T3, PI 3-kinase gamma. The experiment in a line: Cellular U937 AKT assay K1 (MSD). The format is cell-based. As to conditions: U937 cells, K1 format; read-out: Assay K1 PI3Kγ IC50.
The conditions of data set [15]: rat, microsomes, 1 µM, pH 7.4.
Method: as §4

T3 sequence (P48736 whole entry): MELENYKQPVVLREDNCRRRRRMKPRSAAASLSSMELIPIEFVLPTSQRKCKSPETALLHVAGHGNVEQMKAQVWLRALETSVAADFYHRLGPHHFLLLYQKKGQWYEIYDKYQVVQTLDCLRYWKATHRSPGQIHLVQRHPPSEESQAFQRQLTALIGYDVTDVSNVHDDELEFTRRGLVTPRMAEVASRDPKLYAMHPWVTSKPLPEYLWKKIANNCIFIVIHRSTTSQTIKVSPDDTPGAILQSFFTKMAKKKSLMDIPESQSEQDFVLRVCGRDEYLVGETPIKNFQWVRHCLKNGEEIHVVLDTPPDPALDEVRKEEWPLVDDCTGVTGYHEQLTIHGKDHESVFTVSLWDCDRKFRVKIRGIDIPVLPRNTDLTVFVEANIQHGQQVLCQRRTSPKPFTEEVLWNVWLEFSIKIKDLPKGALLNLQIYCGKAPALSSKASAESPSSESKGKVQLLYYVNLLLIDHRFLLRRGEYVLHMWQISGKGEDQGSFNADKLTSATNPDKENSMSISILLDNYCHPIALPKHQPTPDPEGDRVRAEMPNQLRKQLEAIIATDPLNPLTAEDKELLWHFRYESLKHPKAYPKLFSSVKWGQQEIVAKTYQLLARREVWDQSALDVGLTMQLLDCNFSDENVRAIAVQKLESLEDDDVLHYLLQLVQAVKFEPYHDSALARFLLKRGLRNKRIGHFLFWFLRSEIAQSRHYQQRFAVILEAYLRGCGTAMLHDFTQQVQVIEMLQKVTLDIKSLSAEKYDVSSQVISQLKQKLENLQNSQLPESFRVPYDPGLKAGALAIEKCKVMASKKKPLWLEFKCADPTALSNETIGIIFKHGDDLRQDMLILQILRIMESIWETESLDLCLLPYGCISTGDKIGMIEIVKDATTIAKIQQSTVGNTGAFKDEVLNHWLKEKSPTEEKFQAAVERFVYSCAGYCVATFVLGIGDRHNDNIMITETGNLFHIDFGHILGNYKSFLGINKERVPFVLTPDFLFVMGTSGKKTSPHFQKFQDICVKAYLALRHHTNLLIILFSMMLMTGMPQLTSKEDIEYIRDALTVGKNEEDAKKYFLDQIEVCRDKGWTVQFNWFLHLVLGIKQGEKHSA
Method for mTOR: Lanthascreen™ Kinase Binding Assay for mTOR (G)
Binding of an inhibitor to the kinase competes for binding with the tracer, resulting in a loss of FRET.
50 nL of compound dilutions were dispensed onto white 384-well small volume polystyrene plate.

As usually defined, the IC50 is the concentration needed to halve the response being measured. `Cc1ncc(-c2nc(-c3cc(S(=O)(=O)N[C@H]4C[C@@H](O)C4)ccc3C)cnc2N)s1` [Example 43a, cis-3-(5-Amino-6-(2-methylthiazol-5-yl)pyrazin-2-yl)-N-(3-hydroxycyclobutyl)-4-methylbenzenesulfonamide]: the IC50 at PI 3-kinase alpha [1] was 100 nM; on PI 3-kinase beta [2] it was 690 nM; at Vps34 (read-out: Assay C VPS34 IC50) it was 2500 nM; at PI 4-kinase beta (read-out: Assay D PI4Kβ IC50), 2.3 µM; on PI 3-kinase gamma [3], 26 nM; on PI 3-kinase alpha [4] it was 2140 nM. The 50% inhibitory concentration (IC50) at PI 3-kinase beta [5] is 4560 nM; on PI 3-kinase delta [6], 970 nM; at PI 3-kinase gamma [7] it was 68 nM; in data set [8] it was 992 nM; against PI 3-kinase delta [9], 670 nM. Moreover, the “Assay M RLM CI(int)” value in [10] amounted to 63 µL/min/mg.
As to `Cc1ncc(-c2nc(-c3cc(S(=O)(=O)NC[C@H]4CCCO4)ccc3C)cnc2N)s1` (single isomer, unassigned) [Example 45.6a, (R)-3-(5-Amino-6-(2-methylthiazol-5-yl)pyrazin-2-yl)-4-methyl-N-((tetrahydrofuran-2-yl)methyl)benzenesulfonamide or (S)-3-(5-Amino-6-(2-methylthiazol-5-yl)pyrazin-2-yl)-4-methyl-N-((tetrahydrofuran-2-yl)methyl)benzenesulfonamide], the IC50 came to 70 nM on PI 3-kinase alpha [1], 4.1 µM on PI 4-kinase beta (read-out: Assay D PI4Kβ IC50), 9 nM on PI 3-kinase gamma [3] and 820 nM at PI 3-kinase alpha [4]. Further, the “Assay M RLM CI(int)” value in [10] was 228 µL/min/mg.
Consider `Cc1ncc(-c2nc(-c3cc(S(=O)(=O)NCC(C)(C)O)ccc3C)cnc2N)o1` [Example 126, 3-(5-Amino-6-(2-methyloxazol-5-yl)pyrazin-2-yl)-N-(2-hydroxy-2-methylpropyl)-4-methylbenzenesulfonamide], for which the IC50 was 280 nM at PI 3-kinase alpha [1]; 3100 nM on PI 3-kinase beta [2]; above 10000 nM at Vps34 (read-out: Assay C VPS34 IC50); above 10 µM on PI 4-kinase beta (read-out: Assay D PI4Kβ IC50); 57 nM at PI 3-kinase gamma [3]; 4000 nM on PI 3-kinase alpha [4]. Also, the concentration for half-maximal inhibition (IC50) on PI 3-kinase beta [5] was above 10000 nM; at PI 3-kinase delta [6], 4240 nM; on PI 3-kinase delta [9] (read-out: Assay F PI3Kδ IC50), 1000 nM. Moreover, the “Assay M RLM CI(int)” value in data set [10] came out at 20 µL/min/mg.
As to `Cc1ncc(-c2nc(-c3cc(S(=O)(=O)NCC4(CO)CCOCC4)ccc3C)cnc2N)s1` [Example 45.9, 3-(5-Amino-6-(2-methylthiazol-5-yl)pyrazin-2-yl)-N-((4-(hydroxymethyl)tetrahydro-2H-pyran-4-yl)methyl)-4-methylbenzenesulfonamide], the IC50 came to 30 nM at PI 3-kinase alpha [1]; 320 nM at PI 3-kinase beta [2]; 4.9 µM on PI 4-kinase beta (read-out: Assay D PI4Kβ IC50); 39 nM at PI 3-kinase gamma [3]; 350 nM at PI 3-kinase alpha [4]; 880 nM at PI 3-kinase beta [5]. Besides, the concentration for half-maximal inhibition (IC50) is 280 nM at PI 3-kinase delta [6], 33 nM on PI 3-kinase gamma [7] and 100 nM at PI 3-kinase delta [9] (read-out: Assay F PI3Kδ IC50). Besides, the “Assay M RLM CI(int)” value in data set [10] was 83 µL/min/mg.
As for `Cc1ncc(-c2nc(-c3cc(S(=O)(=O)N[C@H]4C[C@H](O)C4)ccc3C)cnc2N)s1` [Example 43b, trans-3-(5-Amino-6-(2-methylthiazol-5-yl)pyrazin-2-yl)-N-(3-hydroxycyclobutyl)-4-methylbenzenesulfonamide], the IC50 at PI 3-kinase alpha [1] stood at 230 nM; on PI 3-kinase beta [2] it was 1500 nM; on Vps34 (read-out: Assay C VPS34 IC50), 5500 nM; on PI 4-kinase beta (read-out: Assay D PI4Kβ IC50), 4.8 µM; at PI 3-kinase gamma [3] it was 42 nM; on PI 3-kinase alpha [4] it was 5440 nM. The concentration for half-maximal inhibition (IC50) at PI 3-kinase beta [5] was 2950 nM; on PI 3-kinase delta [6] it was 2180 nM; on PI 3-kinase gamma [7], 180 nM; against PI 3-kinase delta [9], 2200 nM. The “Assay M RLM CI(int)” value in data set [10] amounted to 45 µL/min/mg.
As for `Cc1ccc(S(=O)(=O)NC2CCOCC2)cc1-c1cnc(N)c(-n2cncn2)n1` [Example 68, 3-(5-Amino-6-(1H-1,2,4-triazol-1-yl)pyrazin-2-yl)-4-methyl-N-(tetrahydro-2H-pyran-4-yl)benzenesulfonamide], the concentration for half-maximal inhibition (IC50) was 640 nM at PI 3-kinase alpha [1]; 2550 nM on PI 3-kinase beta [2]; above 10000 nM at Vps34; 4.4 µM against PI 4-kinase beta (Assay D PI4Kβ IC50 (μM)); 72 nM on PI 3-kinase gamma [3]; 8.75 µM on mTOR. For the same compound, the IC50 came to 2840 nM on PI 3-kinase alpha [11]; 6250 nM against PI 3-kinase beta [12]; 3110 nM at PI 3-kinase delta [13]; 430 nM at PI 3-kinase gamma [14]; 1790 nM in data set [8]; 1500 nM at PI 3-kinase delta [9] (read-out: Assay F PI3Kδ IC50). Also, the “Assay M RLM CI(int)” value in [15] stood at 54 µL/min/mg.
For the compound `Cc1ncc(-c2nc(-c3cc(S(=O)(=O)NC[C@H]4CCCO4)ccc3C)cnc2N)s1` (single isomer, unassigned) [Example 45.6b, (R)-3-(5-Amino-6-(2-methylthiazol-5-yl)pyrazin-2-yl)-4-methyl-N-((tetrahydrofuran-2-yl)methyl)benzenesulfonamide or (S)-3-(5-Amino-6-(2-methylthiazol-5-yl)pyrazin-2-yl)-4-methyl-N-((tetrahydrofuran-2-yl)methyl)benzenesulfonamide], the IC50 on PI 3-kinase alpha [1] is 380 nM; on PI 4-kinase beta (read-out: Assay D PI4Kβ IC50), above 10 µM; on PI 3-kinase gamma [3], 42 nM; on PI 3-kinase alpha [4], 1760 nM. Further, the “Assay M RLM CI(int)” value in data set [10] came out at 237 µL/min/mg.
As for `Cc1ncc(-c2nc(-c3cc(S(=O)(=O)NCC4CCCCO4)ccc3C)cnc2N)s1` (stereo not shown) [Example 45.4, 3-(5-Amino-6-(2-methylthiazol-5-yl)pyrazin-2-yl)-4-methyl-N-((tetrahydro-2H-pyran-2-yl)methyl)benzenesulfonamide], the 50% inhibitory concentration (IC50) at PI 3-kinase alpha [1] is 110 nM; at PI 3-kinase beta [2], 880 nM; on Vps34 (read-out: Assay C VPS34 IC50), 3000 nM; at PI 4-kinase beta (read-out: Assay D PI4Kβ IC50), 1.8 µM; on PI 3-kinase gamma [3] it was 9 nM; on PI 3-kinase alpha [4], 1230 nM. Besides, the figures for the 50% inhibitory concentration (IC50) on PI 3-kinase beta [5], at PI 3-kinase delta [6] and on PI 3-kinase delta [9] (read-out: Assay F PI3Kδ IC50) were 2130 nM, 580 nM and 100 nM, respectively. Besides, the “Assay M RLM CI(int)” value in [10] stood at 502 µL/min/mg.
